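Results reflect a 48-hour exposure of cells in 96-well plates to compound at five concentrations. GI50 = concentration required for 50% inhibition of growth.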 Active and inactive are the calls of the source. Rule as the data show it: active = GI50 up to about 1.1 µM and inactive = higher.

Some test systems named below: SNB-75; NCI/ADR-RES; SK-MEL-5; A498; NCI-H522; CCRF-CEM; CAKI-1; A549; SNB-19; HL-60; DU-145; TK-10; HOP-62; UO-31; HOP-92; HCC 2998; EKVX; M14; UACC-62; U-251.
Common to all, as to test: NCI tumour cell line growth inhibition, 48 h

For the compound `C/C(=C\CNc1ncnc2[nH]c(Cl)nc12)CO`, the GI50 in the assay with SNB-75, in the assay with NCI/ADR-RES, with SK-MEL-5, with A498, with NCI-H522 and in the assay on CCRF-CEM was > 100 µM (inactive) throughout. Further, the GI50 with CAKI-1, in the assay on A549, in the assay on SNB-19, in the assay with HL-60, with DU-145 and in the assay with TK-10 was > 100 µM (inactive) throughout. Besides, the GI50 in the assay with HOP-62, in the assay with UO-31, in the assay on HOP-92, in the assay with HCC 2998, in the assay on EKVX and with M14 was > 100 µM (inactive) in each case.
For `O=c1c2ccccc2nnn1-c1n[nH]c2ccccc12`, the GI50 with SNB-75 is > 100 µM (inactive); with NCI/ADR-RES it was > 100 µM (inactive); in the assay on SK-MEL-5, 37.8 µM (inactive); in the assay on A498, > 100 µM (inactive); in the assay on NCI-H522 it was > 100 µM (inactive); in the assay with CCRF-CEM it was > 100 µM (inactive). The GI50 in the assay on CAKI-1, with UACC-62, with A549, in the assay with SNB-19, in the assay on DU-145 and in the assay on U-251 was > 100 µM (inactive) each time. Also, the GI50 with TK-10, with HOP-62, in the assay with UO-31, with HOP-92, in the assay with HCC 2998 and with EKVX was > 100 µM (inactive) throughout. For the same compound, the GI50 in the assay on M14 is > 100 µM (inactive).
With `CC1(C)C(C(=O)OC(C#N)c2cccc(OCC(=O)OCc3ccccc3)c2)C1(C)C` (stereo unspecified), the GI50 in the assay on SNB-75 is 41.5 µM (inactive); with NCI/ADR-RES it was 81.5 µM (inactive); in the assay with SK-MEL-5, > 100 µM (inactive); in the assay with A498, > 100 µM (inactive); in the assay on NCI-H522, > 100 µM (inactive); in the assay with CCRF-CEM it was 19.5 µM (inactive). For the same compound, the GI50 is > 100 µM (inactive) in the assay on CAKI-1; > 100 µM (inactive) in the assay on UACC-62; > 100 µM (inactive) with A549; > 100 µM (inactive) in the assay on SNB-19; 2.3 µM (inactive) in the assay with HL-60; > 100 µM (inactive) in the assay with DU-145. Also, the GI50 with U-251, in the assay on TK-10, in the assay on HOP-62, in the assay on UO-31, in the assay on HOP-92 and in the assay on EKVX was > 100 µM (inactive) in each case. In addition, in the assay on M14, the GI50 was 48.6 µM (inactive).
`c1csc(-c2cc(-c3ccsc3)c(-c3ccsc3)s2)c1`: the GI50 with SNB-75, in the assay on NCI/ADR-RES, in the assay with SK-MEL-5, in the assay on A498, with NCI-H522 and in the assay on CCRF-CEM was > 100 µM (inactive) throughout. The GI50 with CAKI-1, in the assay with UACC-62, in the assay on A549, in the assay on SNB-19, in the assay on DU-145 and in the assay with U-251 was > 100 µM (inactive) throughout. Besides, the GI50 is > 100 µM (inactive) in the assay on TK-10; > 100 µM (inactive) in the assay on HOP-62; > 100 µM (inactive) in the assay with UO-31; > 100 µM (inactive) in the assay on HOP-92; 68.7 µM (inactive) with HCC 2998; 8.15 µM (inactive) in the assay on EKVX. The GI50 in the assay with M14 is > 100 µM (inactive).
Turning to `COC(=O)C1(Cc2ccccc2)Cc2ccc3c(c2C1=O)CCC3` (stereo unspecified), the GI50 in the assay with SNB-75 was 22.6 µM (inactive); in the assay on NCI/ADR-RES, 23.7 µM (inactive); in the assay with SK-MEL-5 it was 18.5 µM (inactive); with A498, 35.4 µM (inactive); with NCI-H522, 20.8 µM (inactive); with CCRF-CEM, 26.9 µM (inactive). Further, the GI50 with CAKI-1 was 9.73 µM (inactive); with UACC-62 it was > 36.7 µM (inactive); with A549, 46.3 µM (inactive); in the assay on SNB-19, 55.2 µM (inactive); with HL-60, 20.3 µM (inactive); in the assay with DU-145, > 75.3 µM (inactive). Further, the GI50 in the assay with U-251 was 36.1 µM (inactive); in the assay on TK-10, > 47.5 µM (inactive); in the assay on HOP-62 it was > 74.6 µM (inactive); in the assay with UO-31 it was 18 µM (inactive); with HOP-92 it was 20.8 µM (inactive); in the assay with HCC 2998, 38.1 µM (inactive). The GI50 with EKVX was 13.1 µM (inactive); with M14 it was 25.1 µM (inactive).
On to `C[C@]12CC[C@H]3[C@@H](CCC4=C[C@@H](OC5OCC(OC6OC(CO)C(O)C(O)C6O)C(O)C5O)CC[C@@]43C=O)[C@@]1(O)CCC2C1=CC(=O)OC1` (stereo partly specified), for which the GI50 in the assay on SNB-75 was 1.4 µM (inactive); in the assay on NCI/ADR-RES, 0.469 µM (active); in the assay with SK-MEL-5 it was 0.385 µM (active); in the assay on A498 it was 0.755 µM (active); in the assay with NCI-H522 it was 0.203 µM (active); with CCRF-CEM, 0.244 µM (active). Moreover, the GI50 is 0.347 µM (active) with CAKI-1; 1.81 µM (inactive) with UACC-62; 0.165 µM (active) in the assay on A549; 3.11 µM (inactive) with SNB-19; 0.244 µM (active) in the assay with HL-60; 0.435 µM (active) with DU-145. Besides, the GI50 in the assay on U-251 is 0.849 µM (active); in the assay with TK-10 it was 0.681 µM (active); in the assay on HOP-62, 0.431 µM (active); in the assay with UO-31 it was 0.561 µM (active); in the assay on HOP-92 it was 1.11 µM (active); with HCC 2998 it was 0.421 µM (active). Moreover, the GI50 with EKVX was 0.441 µM (active); in the assay on M14 it was 1.21 µM (inactive).
In the case of `COc1ccc(C23OCC(Cc4cc(OC)c(OC)cc42)C3COC(C)=O)cc1OC` (stereo unspecified), the GI50 is > 100 µM (inactive) in the assay on SNB-75; 25.5 µM (inactive) in the assay on NCI/ADR-RES; 20.7 µM (inactive) in the assay on SK-MEL-5; > 100 µM (inactive) with A498; > 100 µM (inactive) in the assay on NCI-H522; > 100 µM (inactive) in the assay on CAKI-1. Moreover, the GI50 with UACC-62, in the assay on A549, in the assay on SNB-19, with HL-60, with DU-145 and with U-251 was > 100 µM (inactive) each time. Further, the GI50 in the assay with TK-10, with HOP-62, in the assay with UO-31, in the assay with HOP-92, in the assay on HCC 2998 and with EKVX was > 100 µM (inactive) throughout. The GI50 with M14 is > 100 µM (inactive).
For the compound `CC(C)(C)C=C=C(C(C)(C)C)P(=O)(O)O`, the GI50 in the assay on SNB-75, in the assay with NCI/ADR-RES, in the assay on SK-MEL-5, in the assay on A498, with NCI-H522 and with CAKI-1 was > 100 µM (inactive) throughout. Moreover, the GI50 in the assay on UACC-62, in the assay with A549, in the assay with SNB-19, in the assay on HL-60, in the assay with DU-145 and in the assay with U-251 was > 100 µM (inactive) throughout. The GI50 in the assay with TK-10, with HOP-62, in the assay on HOP-92, in the assay on HCC 2998, with EKVX and in the assay with M14 was > 100 µM (inactive) in each case.
Turning to `CC(=O)/C(=N\N=C(N)N)c1ccccc1`, the GI50 in the assay on SNB-75 was > 100 µM (inactive); in the assay with NCI/ADR-RES, > 100 µM (inactive); in the assay on SK-MEL-5 it was > 100 µM (inactive); in the assay with A498, > 100 µM (inactive); in the assay on NCI-H522 it was 59.8 µM (inactive); with CAKI-1 it was > 100 µM (inactive). Besides, the GI50 with UACC-62, in the assay on A549, in the assay on SNB-19, in the assay with DU-145, in the assay with U-251 and in the assay with TK-10 was > 100 µM (inactive) in each case. Further, the GI50 in the assay on HOP-62 was > 100 µM (inactive); in the assay with UO-31, > 100 µM (inactive); with HOP-92, > 100 µM (inactive); in the assay with HCC 2998, 28.1 µM (inactive); in the assay with EKVX, 68.1 µM (inactive); with M14 it was > 100 µM (inactive).
Consider `C[C@]12CC(c3ccccc3O1)C(C(N)=O)C(=O)N2` (stereo partly specified), for which the GI50 with SNB-75, in the assay with NCI/ADR-RES, in the assay on SK-MEL-5, in the assay with A498, in the assay on NCI-H522 and with CCRF-CEM was > 100 µM (inactive) throughout. Also, the GI50 in the assay with CAKI-1, in the assay with UACC-62, in the assay on A549, with SNB-19, with HL-60 and in the assay with DU-145 was > 100 µM (inactive) each time. Moreover, the GI50 with U-251, with HOP-62, in the assay with HOP-92, with HCC 2998, in the assay on EKVX and in the assay on M14 was > 100 µM (inactive) in each case.
As for `Clc1sc(Cl)c2c1[C@H](Cl)C[C@@H]2Cl`, the GI50 is 20 µM (inactive) in the assay with SNB-75; 15.9 µM (inactive) in the assay with NCI/ADR-RES; 32.4 µM (inactive) in the assay with SK-MEL-5; 84.1 µM (inactive) in the assay with A498; 1.07 µM (active) with NCI-H522; 6.82 µM (inactive) in the assay with CCRF-CEM. Further, the GI50 with CAKI-1 was 20.2 µM (inactive); in the assay on UACC-62, 22.2 µM (inactive); with A549 it was 21.2 µM (inactive); in the assay with DU-145, 27.5 µM (inactive); in the assay on U-251, 20.9 µM (inactive); in the assay on TK-10 it was 39.5 µM (inactive). The GI50 is 38.5 µM (inactive) with HOP-62; 14.6 µM (inactive) with UO-31; 6.58 µM (inactive) in the assay with HOP-92; 15.2 µM (inactive) in the assay on HCC 2998; 38.3 µM (inactive) in the assay on EKVX; 15.1 µM (inactive) with M14.

The values above are taken from ChEMBL document CHEMBL1201862, “PubChem BioAssay data set” (2004).
